Test results as given in patent publication US10869931B2, “Polyethylene glycol-modified angiogenesis inhibitor HM-1 and application thereof” (NANJING ANJI BIOLOGICAL TECHNOLOGY CO.,LTD, priority 2016, dated 2020).
“And” between values parts separate entries of the source, which are not always exact repeats. Equal entries are not always repeated. Marks after values point to notes of the source that are not given here. Where no end group is shown, it is not given here.

Experiments:
[1] = Half-life / pharmacokinetics of mPEG-HM-1 and HM-1; settings: in vivo
[2] = test system: IL-1β production by mouse peritoneal macrophages; experiment: IL-1β production by mouse peritoneal macrophages (ELISA); type: cell-based; settings: 20 μg/mL, 48 h
Procedure: (1) IL-1β production: mice were intraperitoneally injected with 1 mL of broth (containing 6%) starch, and three days later, the mouse peritoneal macrophages were aseptically taken, washed twice with 1640 medium, and the cell concentration was adjusted to 2×10^6 cells/mL, inject into a 24-well culture plate, 1 mL per well, incubate for 3 hours in a cell culture incubator, shake once every 30 minutes, and allow the cells to fully adhere. Then, it was washed twice with the culture solution to remove unattached cells. The blank group was added with PBS, the positive group was added with the positive drug dexamethasone (Dex), the model group was not administered, to the experimental group was added low, medium and high three concentrations of mPEG-HM-1, and the culture was continued for 48 hours after the administration, 1000 r/min. Centrifuge for 15 min. The supernatant was taken as a sample for testing activity of IL-1β.
(2) Determination of IL-1β content: using R&D mouse IL-1β enzyme-linked immunosorbent assay kit, according to the kit instructions as follows: respectively, the tested samples and different concentrations of standard products, sealed with sealing tape the reaction well and incubated at 37° C. for 90 min; the plate was washed four times; the biotinylated antibody working solution (100 μL/well) was added, and the reaction well was sealed with sealing paper, incubated at 37° c. for 60 min; the plate was washed four times; Add the enzyme conjugate working solution (100 μL/well), seal the reaction well with sealing paper, incubate at 37° C. for 30 min; wash the plate four times; add color reagent (100 μL/well), incubate at 37° C. 10-20 min, add stop solution (100 μL/well), mix and measure OD450 value.

mouse spleen lymphocytes = experiment: ConA-stimulated mouse spleen lymphocyte proliferation (MTT); type: cell-based; settings: 20 μg/mL, ConA 5 μg/mL, 48 h
Procedure: Tris-NH4Cl was used to break the red blood cells, and the cells were allowed to stand in an ice water bath for 4 min, centrifuged (1000 rpm×5 min), the supernatant was discarded, and the cells were washed twice with sterile PBS. Finally, cells were suspended in RPMI 1640 medium (5 mL) supplemented with 10% calf serum, counted, adjusted to a cell concentration of 5×10^6/mL, and cultured in a 96-well culture plate The test group consisted of blank control group, concanavalin A (ConA) group, dexamethasone (Dex) group (0.02 mg/mL) and mPEG-HM-1 group. […] The cells were cultured in a 37° C. cell culture chamber for 48 h. After the completion of the culture, 20 μL of MTT was added to each well, and the culture was continued for 4 h. Finally, all the solutions in each well were discarded, 100 μL of DMSO was added to each well, and the mixture was shaken and detected by a microplate reader OD value at 570 nm, 5 parallels per hole.

[3] = test system: xylene-induced ear swelling in Kunming mice; experiment: Xylene-induced ear swelling in mice; type: in vivo, mouse; settings: 200 mg/kg (positive control) once daily for 5 days
Procedure: Kunming mice were used. The saline group was used as the blank control group, the aspirin group (200 mg/kg) as the positive control group, and the mPEG-HM-1 administration group as the experimental group. Mice were administered once daily for 5 consecutive days. The blank control group was given an equal volume of physiological saline. One hour after the last administration, 0.05 mL of xylene was applied to both sides of the right ear of the mice to cause inflammation, and the left ear was not coated as normal ears. After 2 h, the mice were sacrificed by dislocation, and the ears were cut along the auricle. Ear pieces were taken with a puncher, weighed, and the swelling degree and swelling rate were calculated. Swelling degree=right ear piece weight-left ear piece weight, swelling rate=(swelling degree/left ear piece weight)×100%. Statistical t-test was performed on the test results, *P<0.05 was a significant difference, and **P<0.01 was a very significant difference. See Table 31 to Table 34 for the results.

Question: Which results are given for “RGADRAGGGGRGD [HM-1, Arg-Gly-Ala-Asp-Arg-Ala-Gly-Gly-Gly-Gly-Arg-Gly-Asp]”?
Answer: AUC(0-inf) [1]: 32800 ± 8230 ng·h/mL; MRT inf [1]: 4.02 ± 0.78 min

Question: Which results are given for `C[C@@H]1C[C@H]2[C@@H]3CCC4=CC(=O)C=C[C@]4(C)[C@@]3(F)[C@@H](O)C[C@]2(C)[C@@]1(O)C(=O)CO` [Dex, dexamethasone, reference compound]?
Answer: IL-1β [2]: 361.03 ± 18.27 pg/mL and 368.23 ± 18.27 pg/mL and 361.45 ± 19.17 pg/mL and 359.92 ± 19.17 pg/mL; Inhibition Rate of IL-1β production [2]: 60.24% and 60.58% and 60.97%; inhibition at 20 µg/mL ([2]; Mus musculus, Peritoneal macrophage, read-out: Inhibition Rate of IL-1β production): 61.5%; A570 nm/A630 nm (mouse spleen lymphocytes): 0.3809 ± 0.1036 and 0.3832 ± 0.1042 and 0.3715 ± 0.1266 and 0.3905 ± 0.1094; Inhibition Rate of spleen lymphocyte proliferation (mouse spleen lymphocytes): 44.66% and 45.92% and 43.72%; inhibition at 20 µg/mL (mouse spleen lymphocytes; Mus musculus, Lymphocyte, read-out: Inhibition Rate of spleen lymphocyte proliferation): 44.8%

Question: Which Swelling ([3]; 2 h after xylene) does the source give for `CC(=O)Oc1ccccc1C(=O)O` [aspirin, reference compound] here?
Answer: 3.07 ± 0.31** mg and 3.02 ± 0.41** mg and 3.01 ± 0.53** mg and 2.98 ± 0.53** mg

Question: And the “Inhibition rate” value ([3]; ear swelling vs control)?
Answer: 50.02% and 51.11% and 50.87% and 50.93%
